Values of other authors in patent US20240293789A1, “Encapsulation of Functional Additives in Partially-Open Microcapsules” (priority 2023, published 2024).

Conditions: common solvents used for the encapsulated materials; reference table

Structure (SMILES) | solubility in water
CCCCC [pentane] | 0.04 g/100 g
OCC(O)CO [glycerin] | Miscible
COCCOCCOC [diethylene glycol dimethyl ether] | Miscible
C1CCCCC1 [cyclohexane] | 0.0055 g/100 g
CCOCC [diethyl ether] | 7.5 g/100 g
CCCCCCC [heptane] | 0.01 g/100 g
COCCOC [1,2-dimethoxy-ethane (glyme, DME), 1,2-dimethoxy-ethane] | Miscible
CCO [ethanol] | Miscible
CN(C)P(N(C)C)N(C)C [Hexamethylphosphorous triamide (HMPT), Hexamethylphosphorous triamide] | Miscible

Next, values leading:

solubility in water | Structure (SMILES)
Insoluble | Cc1cccc(C)c1 [m-xylene]
8.7 g/100 g | CCOC(C)=O [ethyl acetate]
Insoluble | Cc1ccccc1C [o-xylene]
Insoluble | Cc1ccc(C)cc1 [p-xylene]
0.0014 g/100 g | CCCCCC [hexane]
